Laboratory results as given in patent US20230096766A1, “AMINO ACID HAVING FUNCTIONAL GROUP CAPABLE OF INTERMOLECULAR HYDROGEN BONDING, PEPTIDE COMPOUND CONTAINING SAME AND METHOD FOR PRODUCTION THEREOF” (Chugai Seiyaku Kabushiki Kaisha, priority 2018, published 2023).
*1 amine or outer side, *2 acyl side, *3 side chain or, on linkers, in order; H or OH if unused. Where a SMILES comes first, the peptide text is derived from it. Bridges are numbered along the chain shown (N, C = ends). [ ]: non-standard residue; d: D form. The star is where a group is joined. ξ: configuration not given here. dhPhe(4-CONHMe,3-OMe) = CNC(=O)c1ccc(CC[C@@H](N)C(=O)O)cc1OC; X1 = COc1cc(C[C@H](N[*:1])C(=O)[*:2])ccc1C(=O)NO; X11 = CNC(=O)c1ccc(CCN(CC(=O)[*:2])[*:1])cc1OC; NMePhe(3-Cl) = CN[C@@H](Cc1cccc(Cl)c1)C(=O)O; ξGln(SO2Me) = CS(=O)(=O)NC(=O)CCC(N)C(=O)O; X9 = O=C([C@@H](CN[*:1])COCCO)[*:2]; X7 = O=C(C[C@H](COCCO)N[*:1])[*:2]; NMeF = CN[C@@H](Cc1ccccc1)C(=O)O; NMeGABA = CN(CCCC(=O)[*:2])[*:1]; NMeL = CN[C@@H](CC(C)C)C(=O)O; Thr(3ξ) = CC(O)[C@H](N)C(=O)O; Butyl(3R-OH) = C[C@@H](O)CC*; Propyl(2R-OH) = C[C@@H](O)C*; NMeV = CN[C@H](C(=O)O)C(C)C; NMeAbu = CC[C@H](NC)C(=O)O; NMeA = CN[C@@H](C)C(=O)O; Piperidide = C1CCN(*)CC1; NBuGly = CCCCNCC(=O)O; NPrGly = CCCNCC(=O)O; Sar = CNCC(=O)O; tBu = CC(C)(C)*

Assay: in vitro
Settings: human, Caco-2, Caco-2

SMILES	Papp
CCCCN1CC(=O)N(C)[C@@H](CC(C)C)C(=O)N[C@H](C(=O)N2CCCCC2)CC(=O)N(C)[C@@H](CC(C)C)C(=O)N[C@@H](CC(C)C)C(=O)N(C)[C@@H](CC)C(=O)N(C)[C@@H](Cc2ccccc2)C(=O)NC(CCC(=O)NS(C)(=O)=O)C(=O)N(C)[C@@H](Cc2cccc(Cl)c2)C(=O)N(C)[C@@H](CC(C)C)C(=O)N[C@@H]([C@@H](C)O)C1=O (stereo partly drawn) [pd64] ([NMeL]L[NMeAbu][NMeF][ξGln(SO2Me)][NMePhe(3-Cl)][NMeL]T[NBuGly][NMeL]D-Piperidide; lactam N-11)	0.15 ×10⁻⁶ cm/s

Same assay, conditions: human, Caco-2, Caco-2 (cm/sec)

SMILES	Papp
CNC(=O)c1ccc(CC[C@H]2NC(=O)[C@H](CC(C)C)N(C)C(=O)CCCN(C)C(=O)C[C@@H](C(=O)N3CCCCC3)NC(=O)[C@H](CC(C)C)N(C)C(=O)[C@H](CC(C)C)N(C)C(=O)[C@H]([C@@H](C)O)NC(=O)[C@H](CC(C)C)N(C)C(=O)[C@H](COC(C)(C)C)NC(=O)[C@H](Cc3ccccc3)N(C)C(=O)[C@H](CC(C)C)N(C)C2=O)cc1OC [AP211] ([NMeGABA][NMeL][dhPhe(4-CONHMe,3-OMe)][NMeL][NMeF]S(tBu)[NMeL]T[NMeL][NMeL]D-Piperidide; lactam N-11)	0.36 ×10⁻⁶ cm/s
CCCCN1CC(=O)N(C)[C@@H](CC(C)C)C(=O)N[C@H](C(=O)N2CCCCC2)CC(=O)N(C)[C@@H](C)C(=O)N[C@@H](COCC[C@@H](C)O)C(=O)N(C)[C@@H](CC(C)C)C(=O)N(C)[C@@H](Cc2cccc(Cl)c2)C(=O)N[C@@H](CC(C)C)C(=O)N(C)[C@@H](Cc2ccccc2)C(=O)N(C)[C@@H](C(C)C)C(=O)N[C@@H]([C@@H](C)O)C1=O [AP112] ([NMeA]S(Butyl(3R-OH))[NMeL][NMePhe(3-Cl)]L[NMeF][NMeV]T[NBuGly][NMeL]D-Piperidide; lactam N-11)	0.73 ×10⁻⁶ cm/s
CCCN1CC(=O)N(C)[C@@H](CC(C)C)C(=O)N[C@H](C(=O)N2CCCCC2)CC(=O)N(C)[C@@H](CC(C)C)C(=O)N[C@@H](Cc2ccccc2)C(=O)N(C)[C@@H](CC(C)C)C(=O)N(C)[C@@H](CC(C)C)C(=O)N[C@@H](COCCO)CC(=O)N(C)[C@@H](Cc2ccccc2)C(=O)N(C)[C@@H](CC(C)C)C(=O)N[C@@H]([C@@H](C)O)C1=O [AP24] ([NMeL]F[NMeL][NMeL][X7][NMeF][NMeL]T[NPrGly][NMeL]D-Piperidide; lactam N-11)	0.42 ×10⁻⁶ cm/s
CCCCN1CC(=O)N(C)[C@@H](Cc2ccccc2)C(=O)NC[C@@H](COCCO)C(=O)N(C)[C@@H](CC(C)C)C(=O)N[C@@H]([C@@H](C)O)C(=O)N(CCC)CC(=O)N(C)[C@@H](Cc2ccccc2)C(=O)N(C)[C@@H](CC(C)C)C(=O)N[C@@H](CC(C)C)C(=O)N(C)[C@@H](CC(C)C)C(=O)N[C@H](C(=O)N2CCCCC2)CC1=O [AP133] ([NBuGly][NMeF][X9][NMeL]T[NPrGly][NMeF][NMeL]L[NMeL]D-Piperidide; lactam N-11)	1.8 ×10⁻⁶ cm/s
CC(C)C[C@@H]1NC(=O)[C@H](Cc2ccccc2)N(C)C(=O)[C@@H](CC(C)C)NC(=O)C[C@@H](C(=O)N2CCCCC2)NC(=O)[C@H](CC(C)C)N(C)C(=O)[C@H](Cc2ccccc2)N(C)C(=O)[C@H](COC(C)(C)C)NC(=O)[C@H](CC(C)C)N(C)C(=O)CN(C)C(=O)[C@H](COC[C@@H](C)O)NC(=O)[C@H](CC(C)C)N(C)C1=O [AP81] ([dL][NMeF]L[NMeL]S(Propyl(2R-OH))[Sar][NMeL]S(tBu)[NMeF][NMeL]D-Piperidide; lactam N-11)	0.69 ×10⁻⁶ cm/s
CC[C@H]1C(=O)N(C)[C@@H](Cc2ccccc2)C(=O)N[C@@H](C)C(=O)N(C)[C@@H](CC(C)C)C(=O)N(C)[C@@H](CC(C)C)C(=O)N[C@@H]([C@@H](C)O)C(=O)N(CCc2ccc(C(=O)NC)c(OC)c2)CC(=O)N(C)[C@@H](CC(C)C)C(=O)N[C@H](C(=O)N2CCCCC2)CC(=O)N(C)[C@@H](C(C)C)C(=O)N[C@@H](CC(C)C)C(=O)N1C [AP217] ([NMeV]L[NMeAbu][NMeF]A[NMeL][NMeL]T[X11][NMeL]D-Piperidide; lactam N-11)	1 ×10⁻⁶ cm/s
CCCCN1CC(=O)N(C)[C@@H](CC(C)C)C(=O)N[C@@H](COC(C)(C)C)C(=O)N(C)[C@@H](Cc2ccccc2)C(=O)N(C)[C@@H](CC(C)C)C(=O)N[C@H](C(=O)N2CCCCC2)CC(=O)N[C@H](C(C)C)C(=O)N(C)[C@@H](C(C)C)C(=O)N[C@@H](Cc2ccc(C(=O)NO)c(OC)c2)C(=O)N(C)[C@@H](CC(C)C)C(=O)N[C@@H]([C@@H](C)O)C1=O [AP256] ([dV][NMeV][X1][NMeL]T[NBuGly][NMeL]S(tBu)[NMeF][NMeL]D-Piperidide; lactam N-11)	0.08 ×10⁻⁶ cm/s
CC[C@H](C)[C@@H]1NC(=O)[C@H](CC(C)C)N(C)C(=O)CN(C)C(=O)C[C@@H](C(=O)N2CCCCC2)NC(=O)[C@H](CC(C)C)N(C)C(=O)[C@H](Cc2ccc(C(=O)NO)c(OC)c2)NC(=O)[C@H](CC(C)C)N(C)C(=O)[C@H](Cc2cccc(Cl)c2)N(C)C(=O)CN(C)C(=O)[C@H](C(C)O)NC(=O)[C@H](CC(C)C)N(C)C1=O (stereo partly drawn) [AP261] ([Sar][NMeL]I[NMeL][Thr(3ξ)][Sar][NMePhe(3-Cl)][NMeL][X1][NMeL]D-Piperidide; lactam N-11)	0.02 ×10⁻⁶ cm/s
